Values quoted from earlier work as cited in US11692003B2, “Mithramycin derivatives having increased selectivity and anti-cancer activity” (University of Kentucky Research Foundation, priority 2018, dated 2023).

System: several cancer cell lines

SMILES	activity against several cancer cell lines compared to the parent MTM
CO[C@H](C(O)C(C)=O)[C@@H]1Cc2cc3cc(OC4C[C@@H](OC5C[C@@H](O)[C@H](O)C(C)O5)[C@H](O)C(C)O4)c(C)c(O)c3c(O)c2C(=O)[C@H]1OC1C[C@@H](OC2C[C@@H](OC3C[C@](C)(O)[C@H](O)C(C)O3)[C@@H](O)C(C)O2)[C@H](O)C(C)O1 (some centres unmarked) [MTM SK, Mithramycin SK]	increased activity
CO[C@H](C(=O)C(C)=O)[C@@H]1Cc2cc3cc(OC4C[C@@H](OC5C[C@@H](O)[C@H](O)C(C)O5)[C@H](O)C(C)O4)c(C)c(O)c3c(O)c2C(=O)[C@H]1OC1C[C@@H](OC2C[C@@H](OC3C[C@](C)(O)[C@H](O)C(C)O3)[C@@H](O)C(C)O2)[C@H](O)C(C)O1 (some centres unmarked) [MTM SDK, mithramycin SDK]	increased activity
